In the supplement of paper PMC10307832 one finds relative viability data, which are given here for 7 cell lines.

What all share (assay): relative viability (nuclei count vs DMSO), 5 days (fraction); higher = more cells survive
Compound in test [1]: C[C@]1(O)C[C@@H](c2nc(-c3ccc4ccc(-c5ccccc5)nc4c3)c3c(N)nccn32)C1 [Linsitinib] + C[C@@H](Oc1cc(-c2cnn(C3CCNCC3)c2)cnc1N)c1c(Cl)ccc(F)c1Cl [Crizotinib] (partner 1 µM)
The essentials: (§1)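 Relative viability is defined as nuclei in treated wells over nuclei in vehicle wells. Duplicate plates were run and medians reported. Lung cancer cell lines in 1536-well plates were dosed by pin tool one day after seeding, with one drug or with a fixed anchor-drug dose plus five library-drug doses (not always all listed) in √10 steps, and nuclei were counted after 5 days.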

Compound in test [2]: Cc1ccc(C(=O)N(CCCN)[C@@H](c2nc3cc(Cl)ccc3c(=O)n2Cc2ccccc2)C(C)C)cc1 [Ispinesib] + COc1cccc2cc(-c3nc([C@H]4CC[C@H](C(=O)O)CC4)n4ncnc(N)c34)[nH]c12 [OSI-027] (partner 0.5 µM)
The essentials:
as §1

Compound in test [3]: Cc1ccc(C(=O)N(CCCN)[C@@H](c2nc3cc(Cl)ccc3c(=O)n2Cc2ccccc2)C(C)C)cc1 [Ispinesib] + Nc1ncn([C@H]2C[C@H](O)[C@@H](CO)O2)c(=O)n1 [Decitabine] (partner 2 µM)
The essentials:
as §1

Compound in test [4]: C[C@]1(O)C[C@@H](c2nc(-c3ccc4ccc(-c5ccccc5)nc4c3)c3c(N)nccn32)C1 [Linsitinib] + CS(=O)(=O)CCNCc1ccc(-c2ccc3ncnc(Nc4ccc(OCc5cccc(F)c5)c(Cl)c4)c3c2)o1 [Lapatinib] (partner 2 µM)
The essentials:
as §1

For PC-14, the relative viability is 0.837 in test [1] (first compound 0.01 µM); 0.914 in test [1] (first compound 0.03162 µM); 0.916 in test [1] (first compound 0.1 µM); 0.869 in test [1] (first compound 0.3162 µM); 0.794 in test [1] (first compound 1 µM); 0.983 in test [2] (first compound 0.001 µM). The relative viability in test [2] (first compound 0.003162 µM) was 0.791; in test [2] (first compound 0.01 µM) it was 0.256; in test [2] (first compound 0.03162 µM) it was 0.0319; in test [2] (first compound 0.1 µM), 0.0859; in test [3] (first compound 0.001 µM) it was 0.21; in test [3] (first compound 0.003162 µM) it was 0.18. For the same cell line, the relative viability turned out to be 0.0598 in test [3] (first compound 0.01 µM); 0.0507 in test [3] (first compound 0.03162 µM); 0.0665 in test [3] (first compound 0.1 µM); 0.281 in test [4] (first compound 0.01 µM); 0.301 in test [4] (first compound 0.03162 µM); 0.303 in test [4] (first compound 0.1 µM). Moreover, the relative viability came to 0.31 in test [4] (first compound 0.3162 µM) and 0.257 in test [4] (first compound 1 µM).
On to NCI-H2009, for which the relative viability is 0.988 in test [1] (first compound 0.01 µM); 1.04 in test [1] (first compound 0.03162 µM); 1.06 in test [1] (first compound 0.1 µM); 0.975 in test [1] (first compound 0.3162 µM); 1.04 in test [1] (first compound 1 µM); 0.702 in test [2] (first compound 0.001 µM). Further, the relative viability in test [2] (first compound 0.003162 µM) worked out at 0.695; in test [2] (first compound 0.01 µM) it was 0.618; in test [2] (first compound 0.03162 µM), 0.212; in test [2] (first compound 0.1 µM), 0.211; in test [3] (first compound 0.001 µM) it was 0.447; in test [3] (first compound 0.003162 µM), 0.365. Also, the relative viability in test [3] (first compound 0.01 µM) came to 0.383; in test [3] (first compound 0.03162 µM) it was 0.366; in test [3] (first compound 0.1 µM), 0.244; in test [4] (first compound 0.01 µM) it was 0.945; in test [4] (first compound 0.03162 µM), 0.878; in test [4] (first compound 0.1 µM), 0.997. Also, the results for the relative viability in test [4] (first compound 0.3162 µM) and in test [4] (first compound 1 µM) were 0.148 and 0.963, respectively.
Consider NCI-H1437, for which the relative viability in test [1] (first compound 0.01 µM) is 0.897; in test [1] (first compound 0.03162 µM), 0.75; in test [1] (first compound 0.1 µM), 0.993; in test [1] (first compound 0.3162 µM), 0.853; in test [1] (first compound 1 µM) it was 0.972; in test [2] (first compound 0.001 µM), 1.1. Besides, the relative viability was 0.881 in test [2] (first compound 0.003162 µM); 1.16 in test [2] (first compound 0.01 µM); 0.938 in test [2] (first compound 0.03162 µM); 0.263 in test [2] (first compound 0.1 µM); 0.552 in test [3] (first compound 0.001 µM); 0.605 in test [3] (first compound 0.003162 µM). The relative viability in test [3] (first compound 0.01 µM) worked out at 0.677; in test [3] (first compound 0.03162 µM), 0.652; in test [3] (first compound 0.1 µM), 0.228; in test [4] (first compound 0.01 µM), 0.758; in test [4] (first compound 0.03162 µM) it was 0.787; in test [4] (first compound 0.1 µM), 0.811. In addition, the relative viability in test [4] (first compound 0.3162 µM) came to 0.551; in test [4] (first compound 1 µM), 0.715.
Turning to NCI-H647, the relative viability was found to be 1.08 in test [1] (first compound 0.01 µM); 1.01 in test [1] (first compound 0.03162 µM); 1.14 in test [1] (first compound 0.1 µM); 0.987 in test [1] (first compound 1 µM); 0.76 in test [2] (first compound 0.001 µM); 0.696 in test [2] (first compound 0.003162 µM). In addition, the relative viability in test [2] (first compound 0.01 µM) worked out at 0.766; in test [2] (first compound 0.03162 µM), 0.235; in test [2] (first compound 0.1 µM) it was 0.107; in test [3] (first compound 0.001 µM), 0.49; in test [3] (first compound 0.003162 µM) it was 0.409; in test [3] (first compound 0.01 µM) it was 0.326. Besides, the relative viability stood at 0.179 in test [3] (first compound 0.03162 µM); 0.157 in test [3] (first compound 0.1 µM); 1.12 in test [4] (first compound 0.01 µM); 1.11 in test [4] (first compound 0.03162 µM); 1.09 in test [4] (first compound 0.1 µM); 0.854 in test [4] (first compound 1 µM).
For SK-MES-1, the relative viability in test [1] (first compound 0.01 µM) was found to be 0.955; in test [1] (first compound 0.03162 µM), 1.06; in test [1] (first compound 0.1 µM), 1.01; in test [1] (first compound 0.3162 µM), 0.826; in test [1] (first compound 1 µM) it was 0.931; in test [2] (first compound 0.001 µM), 0.732. The relative viability in test [2] (first compound 0.003162 µM) came to 0.601; in test [2] (first compound 0.01 µM), 0.628; in test [2] (first compound 0.03162 µM), 0.182; in test [2] (first compound 0.1 µM), 0.229; in test [3] (first compound 0.001 µM), 0.359; in test [3] (first compound 0.003162 µM) it was 0.393. Besides, the relative viability in test [3] (first compound 0.01 µM) worked out at 0.286; in test [3] (first compound 0.03162 µM) it was 0.187; in test [3] (first compound 0.1 µM), 0.211; in test [4] (first compound 0.01 µM), 0.434; in test [4] (first compound 0.03162 µM) it was 0.456; in test [4] (first compound 0.1 µM) it was 0.467. For the same cell line, the relative viability in test [4] (first compound 0.3162 µM) worked out at 0.462; in test [4] (first compound 1 µM), 0.435.
For the cell line NCI-H2087, the relative viability was 0.763 in test [1] (first compound 0.01 µM); 1.01 in test [1] (first compound 0.03162 µM); 0.836 in test [1] (first compound 0.1 µM); 0.842 in test [1] (first compound 0.3162 µM); 0.729 in test [1] (first compound 1 µM); 0.551 in test [2] (first compound 0.001 µM). Also, the relative viability in test [2] (first compound 0.003162 µM) is 0.643; in test [2] (first compound 0.01 µM), 0.535; in test [2] (first compound 0.03162 µM), 0.206; in test [2] (first compound 0.1 µM), 0.102; in test [3] (first compound 0.001 µM), 0.346; in test [3] (first compound 0.003162 µM), 0.297. Also, the relative viability in test [3] (first compound 0.01 µM) was 0.241; in test [3] (first compound 0.03162 µM), 0.194; in test [3] (first compound 0.1 µM) it was 0.122; in test [4] (first compound 0.01 µM) it was 0.886; in test [4] (first compound 0.03162 µM), 1.26; in test [4] (first compound 0.1 µM) it was 1.13. For the same cell line, the relative viability in test [4] (first compound 0.3162 µM) was 0.349; in test [4] (first compound 1 µM), 0.626.
In the case of BEN, the relative viability is 0.767 in test [1] (first compound 0.01 µM); 1.01 in test [1] (first compound 0.03162 µM); 0.993 in test [1] (first compound 0.1 µM); 0.611 in test [1] (first compound 0.3162 µM); 0.826 in test [1] (first compound 1 µM); 0.312 in test [2] (first compound 0.001 µM). Moreover, the relative viability in test [2] (first compound 0.003162 µM) stood at 0.306; in test [2] (first compound 0.01 µM) it was 0.341; in test [2] (first compound 0.03162 µM), 0.38; in test [2] (first compound 0.1 µM) it was 0.202; in test [3] (first compound 0.001 µM), 0.714; in test [3] (first compound 0.003162 µM), 0.737. The relative viability in test [3] (first compound 0.01 µM) came to 0.785; in test [3] (first compound 0.03162 µM), 0.421; in test [3] (first compound 0.1 µM), 0.375; in test [4] (first compound 0.01 µM) it was 0.84; in test [4] (first compound 0.03162 µM), 0.685; in test [4] (first compound 0.1 µM), 0.563. The relative viability in test [4] (first compound 1 µM) turned out to be 0.58.
